pIC50: −log10 of the molar value.
These compounds were tested against T1, oestrogen receptor (ER) (Homo sapiens, UniProt P03372) (assay: Anti-oestrogenic action in MVLN cells (inhibition of estradiol-induced luciferase)). Settings: inhibition of estradiol-induced luciferase signal, value of Ex. 44 is a mean value, read-out: Antioestrogenic action in vitro: MVLN transactivation antagonism IC50.
T1 construct: These MVLN cells express, along with the functional oestrogen receptor (ER), a reporter construct; endogenous in cells; host or cells: MVLN cells (MCF7 derivative carrying a luciferase reporter construct)
T1 sequence (P03372 1-595): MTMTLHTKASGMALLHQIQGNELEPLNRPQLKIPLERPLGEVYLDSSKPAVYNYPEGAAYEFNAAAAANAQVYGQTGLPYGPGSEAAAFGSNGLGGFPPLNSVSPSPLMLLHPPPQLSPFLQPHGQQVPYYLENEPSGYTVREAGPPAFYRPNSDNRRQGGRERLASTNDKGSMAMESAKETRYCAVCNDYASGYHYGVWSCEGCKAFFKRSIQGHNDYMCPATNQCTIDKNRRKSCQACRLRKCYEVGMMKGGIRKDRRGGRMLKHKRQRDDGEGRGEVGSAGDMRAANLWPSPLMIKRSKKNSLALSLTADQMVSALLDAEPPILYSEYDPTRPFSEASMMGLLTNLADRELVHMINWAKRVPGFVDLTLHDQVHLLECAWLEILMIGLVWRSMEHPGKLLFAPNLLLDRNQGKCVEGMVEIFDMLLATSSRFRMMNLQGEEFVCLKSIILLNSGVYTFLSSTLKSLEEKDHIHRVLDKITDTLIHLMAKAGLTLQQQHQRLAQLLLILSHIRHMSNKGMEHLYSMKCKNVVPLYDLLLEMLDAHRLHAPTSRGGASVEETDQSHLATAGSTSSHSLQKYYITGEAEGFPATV
Format: cell-based
Excerpt: The anti-oestrogenic action of the claimed pharmacological compounds was investigated in so-called MVLN cells in vitro. MVLN cells are derivatives of the hormone-responsive MCF7 breast cancer cells known by a person skilled in the art. These MVLN cells express, along with the functional oestrogen receptor (ER), a reporter construct, which under ER-activation expresses luciferase. Determination of the activity of the induced luciferase permits a direct conclusion on the oestrogen properties of substances. To investigate the anti-oestrogenic properties of the pharmacological compounds, they were investigated in the presence of oestrogen for their potential for inhibiting the luciferase signal induced by estradiol. The claimed pharmacological test substances were investigated in MVLN cells for their anti-oestrogenic potential, as described (see Table 2).
In the case of `COC(=O)CCCN(CCCCCCC1=C(c2ccc(F)cc2)CCCc2cc(O)ccc21)CCCCS(=O)(=O)CCCC(F)(F)F` [Example 88, Methyl-4-({6-[8-(4-fluorophenyl)-3-hydroxy-6,7-dihydro-5H-benzo[7]annulen-9-yl]hexyl}{4-[(4,4,4-trifluorobutyl)sulphonyl]butyl}amino)butanoate], the pIC50 was 7.62.
For `CN(CCCCCCC1=C(c2ccc(F)c(F)c2)CCCc2cc(O)ccc21)CCCS(=O)(=O)CCCCC(F)(F)F` [Example 73, 8-(3,4-Difluorophenyl)-9-[6-(methyl{3-[(5,5,5-trifluoropentyl)sulphonyl]propyl}amino)hexyl]-6,7-dihydro-5H-benzo[7]annulen-3-ol], the pIC50 was 7.74.
Work on `CN(CCCCCCC1=C(c2ccc(F)cc2)CCCc2c1ccc(O)c2F)CCCS(=O)(=O)CCCC(F)(F)F` [Example 149, 4-Fluoro-8-(4-fluorophenyl)-9-[6-(methyl{3-[(4,4,4-trifluorobutyl)sulphonyl]propyl}amino)hexyl]-6,7-dihydro-5H-benzo[7]annulen-3-ol] yielded a pIC50 of 7.85.
`CN(CCCCCCC1=C(c2ccc(F)c(F)c2)CCCc2cc(O)ccc21)CCC[S+]([O-])CCC(F)(F)F` (stereo not drawn) [Example 21, 8-(3,4-Difluorophenyl)-9-[6-(methyl{3-[(3,3,3-trifluoropropyl)sulphinyl]propyl}amino)hexyl]-6,7-dihydro-5H-benzo[7]annulen-3-ol] was tested, and the pIC50 was 7.32.
`CN(CCCCCCC1=C(c2ccc(F)cc2)CCCc2c1ccc(O)c2F)CCCS(=O)(=O)CCCCC(F)(F)F` [Example 87, 4-Fluoro-8-(4-fluorophenyl)-9-[6-(methyl{3-[(5,5,5-trifluoropentyl)sulphonyl]propyl}amino)hexyl]-6,7-dihydro-5H-benzo[7]annulen-3-ol] showed a pIC50 of 8.00.
`O=S(=O)(CCCN(CCCO)CCCCCCC1=C(c2ccc(F)cc2)CCCc2c1ccc(O)c2F)CCC(F)(F)F` [Example 62, 4-Fluoro-8-(4-fluorophenyl)-9-{6-[(3-hydroxypropyl){3-[(3,3,3-trifluoropropyl)sulphonyl]propyl}amino]hexyl}-6,7-dihydro-5H-benzo[7]annulen-3-ol] showed a pIC50 of 7.08.
`CN(CCCCCCC1=C(c2ccc(F)c(F)c2)CCCc2cc(O)ccc21)CCCCS(=O)(=O)CCC(F)(F)F` [Example 47, 8-(3,4-Difluorophenyl)-9-[6-(methyl{4-[(3,3,3-trifluoropropyl)sulphonyl]butyl}amino)hexyl]-6,7-dihydro-5H-benzo[7]annulen-3-ol] gave a pIC50 of 7.59.
`CN(CCCCCCC1=C(c2ccc(F)cc2F)CCCc2cc(O)ccc21)CCCS(=O)(=O)CCCCCC(F)(F)F` [Example 135, 8-(2,4-Difluorophenyl)-9-[6-(methyl{3-[(6,6,6-trifluorohexyl)sulphonyl]propyl}amino)hexyl]-6,7-dihydro-5H-benzo[7]annulen-3-ol] showed a pIC50 of 8.30.
`CN(CCCCCCC1=C(c2ccc(F)cc2F)CCCc2cc(O)ccc21)CCCS(=O)(=O)CCC(F)(F)F` [Example 130, 8-(2,4-Difluorophenyl)-9-[6-(methyl{3-[(3,3,3-trifluoropropyl)sulphonyl]propyl}amino)hexyl]-6,7-dihydro-5H-benzo[7]annulen-3-ol] gave a pIC50 of 7.80.
For `CN(CCCCCCC1=C(c2ccc(F)cc2)CCCc2c1ccc(O)c2F)CCCCS(=O)(=O)CCCC(F)(F)C(F)(F)F` [Example 43, 4-Fluoro-8-(4-fluorophenyl)-9-[6-(methyl{4-[(4,4,5,5,5-pentafluoropentyl)sulphonyl]butyl}amino)hexyl]-6,7-dihydro-5H-benzo[7]annulen-3-ol], the pIC50 was 7.70.
For `CC(C)(O)CN(CCCCCCC1=C(c2cc(F)cc(F)c2)CCCc2cc(O)ccc21)CCCS(=O)(=O)CCC(F)(F)F` [Example 11, 8-(3,5-Difluorophenyl)-9-{6-[(2-hydroxy-2-methylpropyl){3-[(3,3,3-trifluoropropyl)sulphonyl]propyl}amino]hexyl}-6,7-dihydro-5H-benzo[7]annulen-3-ol], the pIC50 was 7.08.
Compound `O=S(=O)(CCCN(CCCO)CCCCCCC1=C(c2ccc(F)cc2)CCCc2cc(O)ccc21)CCC(F)(F)F` [Example 57, 8-(4-Fluorophenyl)-9-{6-[(3-hydroxypropyl){3-[(3,3,3-trifluoropropyl)sulphonyl]propyl}amino]hexyl}-6,7-dihydro-5H-benzo[7]annulen-3-ol] has a pIC50 of 6.95.
`CN(CCCCCCC1=C(c2ccc(F)cc2)CCCc2cc(O)c(F)cc21)CCCCS(=O)(=O)CCCC(F)(F)F` [Example 101, 2-Fluoro-8-(4-fluorophenyl)-9-[6-(methyl{4-[(4,4,4-trifluorobutyl)sulphonyl]butyl}amino)hexyl]-6,7-dihydro-5H-benzo[7]annulen-3-ol] showed a pIC50 of 8.22.
For `O=C(O)CCCN(CCCCCCC1=C(c2ccc(F)cc2)CCCc2cc(O)ccc21)CCCCS(=O)(=O)CCCC(F)(F)F` [Example 96, 4-({6-[8-(4-Fluorophenyl)-3-hydroxy-6,7-dihydro-5H-benzo[7]annulen-9-yl]hexyl}{4-[(4,4,4-trifluorobutyl)sulphonyl]butyl}amino)butanoic acid], the pIC50 was 7.68.
Work on `O=S(=O)(CCCCNCCCCCCC1=C(c2cc(F)cc(F)c2)CCCc2cc(O)ccc21)CCCC(F)(F)F` [Example 67, 8-(3,5-Difluorophenyl)-9-[6-({4-[(4,4,4-trifluorobutyl)sulphonyl]butyl}amino)hexyl]-6,7-dihydro-5H-benzo[7]annulen-3-ol] yielded a pIC50 of 7.70.
For `CN(CCCCCCC1=C(c2cc(F)cc(F)c2)CCCc2cc(O)ccc21)CCCS(=O)(=O)CCC(F)(F)C(F)(F)F` [Example 3, 8-(3,5-Difluorophenyl)-9-[6-(methyl{3-[(3,3,4,4,4-pentafluorobutyl)sulphonyl]propyl}amino)hexyl]-6,7-dihydro-5H-benzo[7]annulen-3-ol], the pIC50 was 6.74.
With `CN(CCCCCCC1=C(c2cc(F)cc(F)c2)CCCc2cc(O)ccc21)CCCS(=O)(=O)CCCC(F)(F)C(F)(F)F` [Example 1, 8-(3,5-Difluorophenyl)-9-[6-(methyl{3-[(4,4,5,5,5-pentafluoropentyl)sulphonyl]propyl}amino)hexyl]-6,7-dihydro-5H-benzo[7]annulen-3-ol] the pIC50 was 7.32.
For `CN(CCCCCCC1=C(c2ccc(F)cc2)CCCc2cc(O)ccc21)CCCS(=O)(=O)CCCCC(F)(F)C(F)(F)F` [Example 79, 8-(4-Fluorophenyl)-9-[6-(methyl{3-[(5,5,6,6,6-pentafluorohexyl)sulphonyl]propyl}amino)hexyl]-6,7-dihydro-5H-benzo[7]annulen-3-ol], the pIC50 was 7.77.
Work on `O=S(=O)(CCCN(CCO)CCCCCCC1=C(c2ccc(F)cc2)CCCc2c1ccc(O)c2F)CCC(F)(F)F` [Example 61, 4-Fluoro-8-(4-fluorophenyl)-9-{6-[(2-hydroxyethyl){3-[(3,3,3-trifluoropropyl)sulphonyl]propyl}amino]hexyl}-6,7-dihydro-5H-benzo[7]annulen-3-ol] yielded a pIC50 of 7.62.
For `O=S(=O)(CCCN(CCO)CCCCCCC1=C(c2ccc(F)cc2)CCCc2cc(O)c(F)cc21)CCCC(F)(F)C(F)(F)F` [Example 100, 2-Fluoro-8-(4-fluorophenyl)-9-{6-[(2-hydroxyethyl){3-[(4,4,5,5,5-pentafluoropentyl)sulphonyl]propyl}amino]hexyl}-6,7-dihydro-5H-benzo[7]annulen-3-ol], the pIC50 was 8.05.
`CN(CCCCCCC1=C(c2cc(F)cc(F)c2)CCCc2cc(O)ccc21)CCCCS(=O)(=O)CCC(F)(F)C(F)(F)F` [Example 69, 8-(3,5-Difluorophenyl)-9-[6-(methyl{4-[(3,3,4,4,4-pentafluorobutyl)sulphonyl]butyl}amino)hexyl]-6,7-dihydro-5H-benzo[7]annulen-3-ol] showed a pIC50 of 7.72.
Work on `CN(CCCCCCC1=C(c2ccc(F)cc2F)CCCc2cc(O)ccc21)CCCS(=O)(=O)CCCCC(F)(F)F` [Example 129, 8-(2,4-Difluorophenyl)-9-[6-(methyl{3-[(5,5,5-trifluoropentyl)sulphonyl]propyl}amino)hexyl]-6,7-dihydro-5H-benzo[7]annulen-3-ol] yielded a pIC50 of 8.30.
Compound `O=C(O)CN(CCCCCCC1=C(c2ccc(F)cc2)CCCc2cc(O)ccc21)CCCCS(=O)(=O)CCCC(F)(F)F` [Example 94, N-{6-[8-(4-Fluorophenyl)-3-hydroxy-6,7-dihydro-5H-benzo[7]annulen-9-yl]hexyl}-N-{4-[(4,4,4-trifluorobutyl)sulphonyl]butyl}glycine] has a pIC50 of 7.68.
In the case of `CN(CCCCCCC1=C(c2ccc(F)c(F)c2)CCCc2cc(O)ccc21)CCCS(=O)(=O)CCCC(F)(F)C(F)(F)F` [Example 17, 8-(3,4-Difluorophenyl)-9-[6-(methyl{3-[(4,4,5,5,5-pentafluoropentyl)sulphonyl]propyl}amino)hexyl]-6,7-dihydro-5H-benzo[7]annulen-3-ol], the pIC50 was 7.34.

— patent publication US20130252890A1, “6,7-DIHYDRO-5H-BENZO[7]ANNULENE DERIVATIVES, PROCESS FOR PREPARATION THEREOF, PHARMACEUTICAL PREPARATIONS COMPRISING THEM, AND THE USE THEREOF FOR PRODUCTION OF MEDICAMENTS” (BAYER INTELLECTUAL PROPERTY GMBH, priority 2010, published 2013)
